This note sets out measurements from patent US20120115896A1, “ISOGENIC HUMAN CELL LINES COMPRISING MUTATED CANCER ALLELES AND PROCESS USING THE CELL LINES” (priority 2008, published 2012).

Test [1] relates to DLD-1 colorectal cancer cells and derivative clones (DKO-1, DKO-3, DKO-4, PIK3CA WT/mutant). Kind of test: Viability (ATP assay) of DLD-1 cells and isogenic KRAS / PIK3CA derivative clones. As to conditions: DLD-1, FIG. 8B.
Method: (§1) Results are expressed as percent of viability compared to cells treated with DMSO only ('control') and represent mean±SD of at least three independent observations.
(§2) After serial dilutions, 100 μl of drugs in serum free medium were added to cells with a multichannel pipette. Vehicle and medium-only containing wells were added as controls. Plates were incubated at 37° C. in 5% CO2 for 96 h, after which cell viability was assessed by ATP content using the CellTiter-Glo® Luminescent Assay (Promega Madison, Wis.).
Test [2] deals with HCT 116 colorectal cancer cells and derivative clones (HKh-2, HKe-3, HK2-6, PIK3CA WT/mutant). The test can be described thus: Viability (ATP assay) of HCT 116 cells and isogenic KRAS / PIK3CA derivative clones. Conditions: HCT 116, FIG. 8A.
Method: as §1, §2
The subject of test [3] is hTERT-HME1 cells carrying EGFR (delE746-A750) KI.
The subject of test [4] is hTERT-HME1 cells carrying KRAS (G13D) KI.
Test [5] deals with hTERT-HME1 cells carrying PIK3CA (E545K and H1047R) KI.
The subject of test [6] is hTERT-HME1 cells carrying BRAF (V600E) KI.
The subject of test [7] is hTERT-HME1 DKI cells carrying PIK3CA (H1047R) and EGFR (delE746-A750).

Like-named read-outs stand apart in the source and are kept apart here.

`O=C(NOCC1CC1)c1ccc(F)c(F)c1Nc1ccc(I)cc1Cl` [CI-1040, CI-1040 (PD 184352)]: the “effect on PIK3CA WT/− cells versus isogenic PIK3CA mutant cells” value in test [1] and in test [2] was “affects to a greater extent” each time. Also, the “effect on PIK3CA mutant cells in combination with everolimus” value in test [1] (with everolimus 10^−7 M) and in test [2] (with everolimus 10^−7 M) was “effects comparable to those achievable by the MEK inhibitor alone” each time.
Regarding `CCN(CC)CCNC(=O)c1cc(Cl)c(N)cc1OC` [Metoclopramide], the “ΔKI EGFR” value amounted to 0 in test [3] (Log(M) −3.10); 9.94 in test [3] (Log(M) −3.35); 0 in test [3] (Log(M) −3.57); 0 in test [3] (Log(M) −3.70); 0 in test [3] (Log(M) −3.82); 0 in test [3] (Log(M) −4.05). Besides, the “ΔKI EGFR” value in test [3] (Log(M) −4.30) and in test [3] (Log(M) −4.52) was 0 each time. Also, the “ΔKI KRAS” value in test [4] (Log(M) −3.10), in test [4] (Log(M) −3.35), in test [4] (Log(M) −3.57), in test [4] (Log(M) −3.70), in test [4] (Log(M) −3.82) and in test [4] (Log(M) −4.05) was 0 in each case. Besides, the “ΔKI KRAS” value in test [4] (Log(M) −4.30) and in test [4] (Log(M) −4.52) was 0 each time. The “ΔKI PIK3CA” value in test [5] (Log(M) −3.10), in test [5] (Log(M) −3.35), in test [5] (Log(M) −3.57), in test [5] (Log(M) −3.70), in test [5] (Log(M) −3.82) and in test [5] (Log(M) −4.05) was 0 in each case. For the same compound, the “ΔKI PIK3CA” value in test [5] (Log(M) −4.30) and in test [5] (Log(M) −4.52) was 0 in each case. Also, the “ΔKI BRAF” value in test [6] (Log(M) −3.10) is −4.48; in test [6] (Log(M) −3.35), 0; in test [6] (Log(M) −3.57), 0; in test [6] (Log(M) −3.70) it was −0.66; in test [6] (Log(M) −3.82), 0; in test [6] (Log(M) −4.05) it was 0. Besides, the “ΔKI BRAF” value in test [6] (Log(M) −4.30) and in test [6] (Log(M) −4.52) was 0 each time. The “ΔKI PIK3CA + EGFR” value in test [7] (Log(M) −3.10) stood at 2.8; in test [7] (Log(M) −3.35) it was 0; in test [7] (Log(M) −3.57), 0; in test [7] (Log(M) −3.70), 0.2; in test [7] (Log(M) −3.82) it was 0; in test [7] (Log(M) −4.05), 0. Further, the “ΔKI PIK3CA + EGFR” value in test [7] (Log(M) −4.30) and in test [7] (Log(M) −4.52) was 0 throughout.
`O=C1C[C@@H](c2ccc(O)cc2)Oc2cc(O)cc(O)c21` [Naringenin]: the “ΔKI EGFR” value in test [3] (Log(M) −3.05), in test [3] (Log(M) −3.52) and in test [3] (Log(M) −4.00) was 0 each time. The “ΔKI KRAS” value in test [4] (Log(M) −3.05), in test [4] (Log(M) −3.52) and in test [4] (Log(M) −4.00) was 0 throughout. Besides, the “ΔKI PIK3CA” value in test [5] (Log(M) −3.05), in test [5] (Log(M) −3.52) and in test [5] (Log(M) −4.00) was 0 in each case. In addition, the figures for the “ΔKI BRAF” value in test [6] (Log(M) −3.05), in test [6] (Log(M) −3.52) and in test [6] (Log(M) −4.00) were −0.08, 0 and −1.5, respectively. Also, the “ΔKI PIK3CA + EGFR” value in test [7] (Log(M) −3.05), in test [7] (Log(M) −3.52) and in test [7] (Log(M) −4.00) was 0 each time.
Turning to `Oc1cccc(-c2nc(N3CCOCC3)c3oc4ncccc4c3n2)c1` [PI-103], the “ΔKI EGFR” value in test [3] (Log(M) −6.00) is on record as 3.9; in test [3] (Log(M) −7.00), 0; in test [3] (Log(M) −8.00) it was 0. The “ΔKI KRAS” value in test [4] (Log(M) −6.00), in test [4] (Log(M) −7.00) and in test [4] (Log(M) −8.00) was 0 throughout. Also, the “ΔKI PIK3CA” value in test [5] (Log(M) −6.00), in test [5] (Log(M) −7.00) and in test [5] (Log(M) −8.00) was 0 each time. The “ΔKI BRAF” value in test [6] (Log(M) −6.00), in test [6] (Log(M) −7.00) and in test [6] (Log(M) −8.00) was 0 in each case. Moreover, the “ΔKI PIK3CA + EGFR” value in test [7] (Log(M) −6.00), in test [7] (Log(M) −7.00) and in test [7] (Log(M) −8.00) was 0 each time.
Regarding `COc1cc(O)c2c(c1)O[C@H](c1ccc(O)cc1)CC2=O` [Sakuranetin], the “ΔKI EGFR” value in test [3] (Log(M) −3.05) is 0.02; in test [3] (Log(M) −3.52), 0.78. In addition, the “ΔKI KRAS” value in test [4] (Log(M) −3.05) and in test [4] (Log(M) −3.52) was 0 throughout. The “ΔKI PIK3CA” value in test [5] (Log(M) −3.05) is 0; in test [5] (Log(M) −3.52), 2.4. For the same compound, the “ΔKI BRAF” value in test [6] (Log(M) −3.05) amounted to 0.02; in test [6] (Log(M) −3.52) it was 2.24. The “ΔKI PIK3CA + EGFR” value was determined as 0.04 in test [7] (Log(M) −3.05) and 1.46 in test [7] (Log(M) −3.52).
